From US6060462A, “Electrophilic peptide analogs as inhibitors of trypsin-like enzymes” (DuPont Pharmaceuticals Company, priority 1997, dated 2000)
Counter-ions that a name gives are not always drawn. Like-named read-outs stand apart in the source and are kept apart here.

Columns and labels:
human factor VIIa = molecular target: T1, human factor VIIa (Homo sapiens, UniProt P08709); assay: Inhibition of Factor VIIa hydrolysis of chromogenic substrate S2288 (Ki); format: biochemical; settings: purified human factor VIIa, 0.05 M tris buffer, pH 7.6, read-out: Ki values for inhibition of Serine Proteases: Factor VIIa
T1 construct: 50 nM human factor VIIa (BiosPacific, Emeryville, Calif.); purchased BiosPacific, Emeryville, Calif
T1 sequence (P08709 213-466 limits assumed): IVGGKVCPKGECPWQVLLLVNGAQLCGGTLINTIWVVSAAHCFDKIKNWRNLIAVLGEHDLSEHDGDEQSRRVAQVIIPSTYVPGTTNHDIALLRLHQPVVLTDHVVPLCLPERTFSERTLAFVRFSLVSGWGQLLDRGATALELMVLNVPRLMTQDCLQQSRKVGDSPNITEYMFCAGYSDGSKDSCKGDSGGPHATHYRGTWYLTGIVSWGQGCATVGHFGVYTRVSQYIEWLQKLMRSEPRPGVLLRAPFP
T1 sequence (P08709 61-212 partner limits assumed): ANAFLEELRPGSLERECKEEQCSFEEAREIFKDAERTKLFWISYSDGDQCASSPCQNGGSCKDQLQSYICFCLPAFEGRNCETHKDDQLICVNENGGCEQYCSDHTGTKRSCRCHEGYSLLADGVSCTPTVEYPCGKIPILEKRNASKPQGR
Method in brief: (§1)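 Purified human proteases hydrolysed chromogenic substrates (thrombin S2238, Xa S2222, VIIa S2288), followed at 405 nm. Thrombin/Xa buffer: 0.10 M sodium phosphate pH 7.5, 0.20 M NaCl, 0.5% PEG 8000; VIIa: 0.05 M Tris pH 7.6, 0.10 M NaCl, 4 mM CaCl2, 0.1% BSA. Ki from velocities at 25–30 min.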

human thrombin [1] = molecular target: T2, human thrombin (Homo sapiens, UniProt P00734); assay: Inhibition of thrombin hydrolysis of chromogenic substrate S2238 (Ki); format: biochemical; parameters: 0.2-0.5 nM human thrombin or human factor Xa; purchased Enzyme Research Laboratories, South Bend, Ind; settings: purified human thrombin, 0.10 M sodium phosphate buffer, pH 7.5, read-out: Ki values for inhibition of Serine Proteases: Trombin
Method in brief: as §1

Thrombin time = Thrombin time (IC50), Table 80
human factor Xa = molecular target: T3, human factor Xa (Homo sapiens, UniProt P00742); assay: Inhibition of Factor Xa hydrolysis of chromogenic substrate S2222 (Ki); format: biochemical; settings: purified human factor Xa, 0.10 M sodium phosphate buffer
T3 construct: 0.2-0.5 nM human thrombin or human factor Xa; purchased Enzyme Research Laboratories, South Bend, Ind
T3 sequence (P00742 235-488 limits assumed): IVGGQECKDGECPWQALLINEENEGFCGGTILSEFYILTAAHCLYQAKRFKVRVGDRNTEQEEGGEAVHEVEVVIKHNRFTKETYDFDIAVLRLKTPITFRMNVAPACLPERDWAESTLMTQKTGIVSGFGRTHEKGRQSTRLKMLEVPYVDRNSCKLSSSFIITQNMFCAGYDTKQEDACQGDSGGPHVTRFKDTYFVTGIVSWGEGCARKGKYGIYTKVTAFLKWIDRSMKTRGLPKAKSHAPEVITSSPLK
T3 sequence (P00742 41-179 partner limits assumed): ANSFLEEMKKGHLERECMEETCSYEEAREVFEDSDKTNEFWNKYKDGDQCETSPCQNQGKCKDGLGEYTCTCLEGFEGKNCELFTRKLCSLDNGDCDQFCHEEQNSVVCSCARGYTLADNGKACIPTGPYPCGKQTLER
Method in brief: as §1

thrombin = settings: literature value; cited from earlier work
human thrombin [2] = molecular target: T2, human thrombin; settings: literature value; cited from earlier work
[3] = pH 7.5, read-out: Ki values for inhibition of Serine Proteases: Factor Xa

`CN(CC(=O)NC(CCCCN)B1OC2CC3CC(C3(C)C)C2(C)O1)C(=O)c1ccccc1Sc1ccccc1C#N` (stereo not shown) [Example 62.4.3, (2-(2-Cyano)-Thiophenyl)-Benzoyl-Sar-boroLys-C10H16 HCl] showed a Ki (human factor VIIa) of under 50000 nM, a Ki (human thrombin [1]) of under 500 nM and an IC50 (Thrombin time) of under 50000 nM. For the same molecule, the Ki (human factor Xa; [3]) was under 500 nM.
Work on `CC1(C)C2CC3OB(C(CCCCN)NC(=O)CN(C(=O)CCc4ccccc4)C4CC4)OC3(C)C1C2` (stereo not shown) [Example 54.4.2, Hydrocinnamoyl-[N-(Cyclopropyl)-Gly]-boroLys-C10H16 HCl] yielded a Ki (human factor VIIa) of under 500 nM, a Ki (human thrombin [1]) of under 500 nM and an IC50 (Thrombin time) of under 500 nM. It also gave a Ki (human factor Xa; [3]) of under 50000 nM.
For `NCCCCC(NC(=O)CN(CCc1ccccc1)C(=O)CCCC(=O)O)B(O)O` (stereo not shown) [Example 66.1.1, Glutaryl-[N-(Phenethyl)-Gly]-boroLys--OH HCl], the Ki (human factor VIIa) was under 50000 nM, the Ki (human thrombin [1]) was under 500 nM and the IC50 (Thrombin time) was under 50000 nM. The Ki (human factor Xa; [3]) was under 500 nM.
For `N#CC(CCCNC(=N)N)NC(=O)[C@@H]1CCCN1C(=O)[C@H](N)Cc1ccccc1` (stereo partly drawn) [D-phenylalanyl-prolyl-NHCH((CH2)3 NHC(=NH)NH2)--CN], the Ki (thrombin) is given as 700 nM.
Molecule `CC1(C)C2CC3OB(C(CCCCN)NC(=O)CN(CCc4ccccc4)C(=O)CNS(C)(=O)=O)OC3(C)C1C2` (stereo not shown) [Example 69.3.2, Methanesulfonyl-Gly-[N-(Phenethyl)-Gly]-boroLys-C10H16 HCl] has a Ki (human factor VIIa) of under 500 nM, a Ki (human thrombin [1]) of under 500 nM and an IC50 (Thrombin time) of under 500 nM. The Ki (human factor Xa; [3]) was under 500 nM.
Molecule `NCCCCC(NC(=O)CN(CCc1ccccc1C1CC1)C(=O)CCc1ccccc1)B(O)O` (stereo not shown) [Example 53.1.2, Hydrocinnamoyl-[N-(2-(Cyclopropyl)-Phenethyl)-Gly]-boroLys--OH HCl] has a Ki (human factor VIIa) of under 500 nM, a Ki (human thrombin [1]) of under 500 nM and an IC50 (Thrombin time) of under 500 nM. The Ki (human factor Xa; [3]) was under 500 nM.
For “2-Benzyl-(N-Benzyl)-Sar-boroLys--C10 H16 HCl [Example 64.1.1]”, the Ki (human factor VIIa) was under 50000 nM, the Ki (human thrombin [1]) was under 500 nM and the “IC50 Thrombin time” value (Thrombin time) was “Inactive”. It also gave a Ki (human factor Xa; [3]) of under 50000 nM.
In the case of “2-Thiophenyl-Benzoyl-Sar-boroLys(CH=NH)-C10H16 [Example 63.4.2]”, the Ki (human factor VIIa) is reported as under 50000 nM, the Ki (human thrombin [1]) is reported as under 500 nM and the IC50 (Thrombin time) is reported as under 50000 nM. The Ki (human factor Xa; [3]) was under 500 nM.
For `CC1(C)C2CC3OB(C(CCCCN)NC(=O)CN(C(=O)CCc4ccccc4)C4CCCCC4)OC3(C)C1C2` (stereo not shown) [Example 54.4.3, Hydrocinnamoyl-[N-(Cyclohexyl)-Gly]-boroLys-C10H16 HCl], the Ki (human factor VIIa) was under 500 nM, the Ki (human thrombin [1]) was under 500 nM and the IC50 (Thrombin time) was under 50000 nM. The Ki (human factor Xa; [3]) was under 50000 nM.
With `CC(C)(CN(CC(=O)NC(CCCCN)B(O)O)C(=O)CCc1ccccc1)c1ccccc1` (stereo not shown) [Example 53.1.1, Hydrocinnamoyl-[N-(2,2-dimethyl)-phenethyl-Gly]-boroLys--OH hydrochloride salt] the Ki (human factor VIIa) was under 500 nM, the Ki (human thrombin [1]) was under 500 nM and the IC50 (Thrombin time) was under 500 nM. The Ki (human factor Xa; pH 7.5, hydrochloride salt, read-out: Ki values for inhibition of Serine Proteases: Factor Xa) was under 500 nM.
`Cc1cccc(CCN(CC(=O)NC(CCCCN)B(O)O)C(=O)CCc2ccccc2)c1` (stereo not shown) [Example 52.1.2, Hydrocinnamoyl-[N-(3-methylphenethyl)-Gly]-boroLys--OH hydrochloride salt] gave a Ki (human factor VIIa) of under 50000 nM, a Ki (human thrombin [1]) of under 500 nM and an IC50 (Thrombin time) of under 500 nM. It also gave a Ki (human factor Xa; [3]) of under 500 nM.
For `N=C(N)NCCC[C@@H](C=O)NC(=O)[C@@H]1CCCN1C(=O)[C@H](N)Cc1ccccc1` [D-phenylalanyl-prolyl-arginal], the Ki (human thrombin [2]) is listed as 75 nM.
“Methanesulfonyl-Gly-[N-(N-(Methyl)-Benzyl)-Gly]-boroLys--OH HCl [Example 66.3.2]” gave a Ki (human factor VIIa) of under 500 nM, a Ki (human thrombin [1]) of under 500 nM and an IC50 (Thrombin time) of under 500 nM. For the same molecule, the Ki (human factor Xa; [3]) was under 500 nM.
